Target: T1, PMS2 protein (Homo sapiens, UniProt P54278)
T1 construct: host or cells: SW620 human colorectal carcinoma cells
T1 sequence (P54278 1-862): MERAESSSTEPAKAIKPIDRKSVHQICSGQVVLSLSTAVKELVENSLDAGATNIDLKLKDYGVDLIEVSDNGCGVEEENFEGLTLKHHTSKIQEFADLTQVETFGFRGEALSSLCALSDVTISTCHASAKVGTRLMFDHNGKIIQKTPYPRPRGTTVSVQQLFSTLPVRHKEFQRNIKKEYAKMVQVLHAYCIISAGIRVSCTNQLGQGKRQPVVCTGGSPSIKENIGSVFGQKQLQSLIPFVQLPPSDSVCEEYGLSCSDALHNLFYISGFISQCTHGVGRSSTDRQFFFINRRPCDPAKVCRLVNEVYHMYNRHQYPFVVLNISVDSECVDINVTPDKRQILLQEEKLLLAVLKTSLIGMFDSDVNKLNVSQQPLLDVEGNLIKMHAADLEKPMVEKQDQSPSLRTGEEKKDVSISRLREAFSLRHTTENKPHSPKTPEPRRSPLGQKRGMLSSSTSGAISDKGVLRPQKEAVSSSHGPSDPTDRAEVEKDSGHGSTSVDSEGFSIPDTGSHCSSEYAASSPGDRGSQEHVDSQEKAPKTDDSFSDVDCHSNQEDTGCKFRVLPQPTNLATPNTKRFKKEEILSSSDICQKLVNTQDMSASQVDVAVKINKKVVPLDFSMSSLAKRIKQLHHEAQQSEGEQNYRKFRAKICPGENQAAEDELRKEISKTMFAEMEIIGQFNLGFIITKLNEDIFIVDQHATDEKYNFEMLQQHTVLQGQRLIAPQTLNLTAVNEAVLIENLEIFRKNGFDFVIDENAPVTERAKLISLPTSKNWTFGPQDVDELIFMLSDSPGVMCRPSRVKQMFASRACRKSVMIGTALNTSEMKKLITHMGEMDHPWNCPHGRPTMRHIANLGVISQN
Assay: PROTAC screening in SW620 human colorectal carcinoma cells, PMS2 protein level by JESS Western blot
Format: cell-based
Settings: SW-620, 24 h, 1 uM compound, normalised to actin and DMSO control, Table A1

SMILES	remaining activity at 1 µM [%]
Cc1c(O)cc(O)c(C(=O)N2Cc3ccc(CN4CCN(CCOCCOCCOCCOCCOCCNc5cccc6c5C(=O)N(C5CCC(=O)NC5=O)C6=O)CC4)cc3C2)c1OCc1ccccc1 (stereo not drawn) [Example 4, 4-((17-(4-((2-(2-(Benzyloxy)-4,6-dihydroxy-3-methylbenzoyl)isoindolin-5-yl)methyl)piperazin-1-yl)-3,6,9,12,15-pentaoxaheptadecyl)amino)-2-(2,6-dioxopiperidin-3-yl)isoindoline-1,3-dione]	< 10
Cc1c(O)cc(O)c(C(=O)N2Cc3ccc(CN4CCN(CCOCCOCCOCCOCCOCCOCCNc5cccc6c5C(=O)N(C5CCC(=O)NC5=O)C6=O)CC4)cc3C2)c1OCC1CCCCC1 (stereo not drawn) [Example 8, 4-[2-[2-[2-[2-[2-[2-[2-[4-[[2-[2-(Cyclohexylmethoxy)-4,6-dihydroxy-3-methyl-benzoyl]isoindolin-5-yl]methyl]piperazin-1-yl]ethoxy]ethoxy]ethoxy]ethoxy]ethoxy]ethoxy]ethylamino]-2-(2,6-dioxo-3-piperidyl)isoindoline-1,3-dione]	10 to 25
Cc1ncsc1-c1ccc(CNC(=O)[C@@H]2C[C@@H](O)CN2C(=O)[C@@H](NC(=O)CCCCCCCCCC(=O)N2CCN(Cc3ccc4c(c3)CN(C(=O)c3c(O)cc(O)c(C)c3OCC3CCCCC3)C4)CC2)C(C)(C)C)cc1 [Example 30, (2S,4R)-1-[(2S)-2-[[11-[4-[[2-[2-(Cyclohexylmethoxy)-4,6-dihydroxy-3-methyl-benzoyl]isoindolin-5-yl]methyl]piperazin-1-yl]-11-oxo-undecanoyl]amino]-3,3-dimethyl-butanoyl]-4-hydroxy-N-[[4-(4-methylthiazol-5-yl)phenyl]methyl]pyrrolidine-2-carboxamide]	< 10
